Where a SMILES comes first, the peptide text is derived from it. Where no end group is shown, it is not given here. [ ]: non-standard residue; d: D form. Gla = N[C@@H](CC(C(=O)O)C(=O)O)C(=O)O
System: NMDA receptor
Format: binding
Conditions: not given
In the case of “(A^7,10,14)6-17: A^7,10,14 Con G with residues 1-5 deleted (QANQALIRAKSN; ends and bridges not checked; UniProt P07231 81-97, looked up, variant E7A E10A E14A del1-5)”, the IC50 is reported as “inactive”.
In the case of “(A^7,10,14)4-17: A^7,10,14 Con G with residues 1-3 deleted (ELQANQALIRAKSN; ends and bridges not checked; UniProt P07231 81-97, looked up, variant E7A E10A E14A del1-3)”, the IC50 is reported as “inactive”.
With “(A^7,10,14)3-17: A^7,10,14 Con G with residues 1-2 deleted (EELQANQALIRAKSN; ends and bridges not checked; UniProt P07231 81-97, looked up, variant E7A E10A E14A del1-2)” the IC50 was “inactive”.
With “(A^7,10,14)2-17: A^7,10,14 Con G with residue 1 deleted (EEELQANQALIRAKSN; ends and bridges not checked; UniProt P07231 81-97, looked up, variant E7A E10A E14A G1*)” the IC50 was “inactive”.
With “(A^7,10,14)5-17: A^7,10,14 Con G with residues 1-4 deleted (LQANQALIRAKSN; ends and bridges not checked; UniProt P07231 81-97, looked up, variant E7A E10A E14A del1-4)” the IC50 was “inactive”.

Same assay, conditions: read-out: IC50
CC[C@H](C)[C@H](NC(=O)[C@H](CC(C)C)NC(=O)[C@H](CC(C(=O)O)C(=O)O)NC(=O)[C@H](CCC(N)=O)NC(=O)[C@H](CC(N)=O)NC(=O)[C@H](CC(C(=O)O)C(=O)O)NC(=O)[C@H](CCC(N)=O)NC(=O)[C@H](CC(C)C)NC(=O)[C@H](CC(C(=O)O)C(=O)O)NC(=O)[C@H](Cc1ccc(O)cc1)NC(=O)[C@H](CCC(=O)O)NC(=O)CN)C(=O)N[C@@H](CCCNC(=N)N)C(=O)N[C@@H](CC(C(=O)O)C(=O)O)C(=O)N[C@@H](CCCCN)C(=O)N[C@@H](CO)C(=O)N[C@@H](CC(N)=O)C(N)=O [Y^3] (H-GEY[Gla]LQ[Gla]NQ[Gla]LIR[Gla]KSN-NH2; N-terminus assumed) gave an IC50 of 960 nM.
For CC[C@H](C)[C@H](NC(=O)[C@H](CC(C)C)NC(=O)[C@H](C)NC(=O)[C@H](CCC(N)=O)NC(=O)[C@H](CC(N)=O)NC(=O)[C@H](C)NC(=O)[C@H](CCC(N)=O)NC(=O)[C@H](CC(C)C)NC(=O)[C@H](CC(C(=O)O)C(=O)O)NC(=O)[C@H](CC(C(=O)O)C(=O)O)NC(=O)[C@H](CCC(=O)O)NC(=O)CN)C(=O)N[C@@H](CCCNC(=N)N)C(N)=O [(A^7,10)1-13] (H-GE[Gla][Gla]LQANQALIR-NH2; N-terminus assumed), the IC50 was 253 nM.
Compound CC[C@H](C)[C@H](NC(=O)[C@H](CC(C)C)NC(=O)[C@H](CC(C(=O)O)C(=O)O)NC(=O)[C@H](CCC(N)=O)NC(=O)[C@H](CC(N)=O)NC(=O)[C@H](CC(C(=O)O)C(=O)O)NC(=O)[C@H](CCC(N)=O)NC(=O)[C@H](CC(C)C)NC(=O)[C@H](Cc1ccc(O)cc1)NC(=O)[C@H](CC(C(=O)O)C(=O)O)NC(=O)[C@H](CCC(=O)O)NC(=O)CN)C(=O)N[C@@H](CCCNC(=N)N)C(=O)N[C@@H](CC(C(=O)O)C(=O)O)C(=O)N[C@@H](CCCCN)C(=O)N[C@@H](CO)C(=O)N[C@@H](CC(N)=O)C(N)=O [E^4] (H-GE[Gla]YLQ[Gla]NQ[Gla]LIR[Gla]KSN-NH2; N-terminus assumed) has an IC50 of at least 20000 nM.
Work on CC[C@H](C)[C@H](NC(=O)[C@H](CC(C)C)NC(=O)[C@H](Cc1ccc(O)cc1)NC(=O)[C@H](CCC(N)=O)NC(=O)[C@H](CC(N)=O)NC(=O)[C@H](C)NC(=O)[C@H](CCC(N)=O)NC(=O)[C@H](CC(C)C)NC(=O)[C@H](CC(C(=O)O)C(=O)O)NC(=O)[C@H](CC(C(=O)O)C(=O)O)NC(=O)[C@H](CCC(=O)O)NC(=O)CN)C(=O)N[C@@H](CCCNC(=N)N)C(=O)N[C@@H](CC(C(=O)O)C(=O)O)C(=O)N[C@@H](CCCCN)C(=O)N[C@@H](CO)C(=O)N[C@@H](CC(N)=O)C(N)=O [A^7, Y^10] (H-GE[Gla][Gla]LQANQYLIR[Gla]KSN-NH2; N-terminus assumed) yielded an IC50 of 79 nM.
Compound CC[C@H](C)[C@H](NC(=O)[C@H](CC(C)C)NC(=O)[C@H](C)NC(=O)[C@H](CCC(N)=O)NC(=O)[C@H](CC(N)=O)NC(=O)[C@H](C)NC(=O)[C@H](CCC(N)=O)NC(=O)[C@H](CC(C)C)NC(=O)[C@H](CC(C(=O)O)C(=O)O)NC(=O)[C@H](CC(C(=O)O)C(=O)O)NC(=O)[C@H](CCC(=O)O)NC(=O)CN)C(N)=O [(A^7,10)1-12] (H-GE[Gla][Gla]LQANQALI-NH2; N-terminus assumed) has an IC50 of 300 nM.

System: not given
Conditions: Frings audiogenic, mouse, tissue homogenate
For CC[C@H](C)[C@H](NC(=O)[C@H](CC(N)=O)NC(=O)[C@H](CCC(=O)O)NC(=O)[C@H](CCCNC(=N)N)NC(=O)[C@H](C)NC(=O)[C@H](CC(C)C)NC(=O)[C@H](CCC(=O)O)NC(=O)[C@H](C)NC(=O)[C@H](C)NC(=O)[C@H](CCSC)NC(=O)[C@H](CCCCN)NC(=O)[C@H](C)NC(=O)[C@@H](NC(=O)[C@H](CCC(=O)O)NC(=O)[C@H](CCC(=O)O)NC(=O)[C@H](CCC(=O)O)NC(=O)CN)C(C)C)C(=O)N[C@@H](C)C(=O)N[C@@H](CCCCN)C(=O)NCC(=O)N[C@H]1CSSC[C@@H](C(=O)N[C@@H](Cc2ccc(O)cc2)C(=O)N2CCC[C@H]2C(=O)O)NC(=O)[C@H](CC(N)=O)NC(=O)[C@H](C(C)C)NC(=O)[C@H](CCCCN)NC1=O [ECon R], the T1/2 was 2.4 min.
